Results on one compound are retold here after article PMC5218480 (PLoS ONE, 2017).

The assay deals with MV-4-11 cells. The assay is described as follows: Gene expression microarray analysis (Affymetrix PrimeView) and GSEA. The format is cell-based, human. Also on record: RFU PODN (11730768_x_at) / Fold change /veh PODN (11730768_x_at) / RFU LINC00158 (11744669_a_at) / Fold change /veh LINC00158 (11744669_a_at) / RFU DUSP10 (11751237_a_at) / Fold change /veh DUSP10 (11751237_a_at) / RFU ID3 (11757404_x_at) / Fold change /veh ID3 (11757404_x_at) / RFU PLEKHG5 (11737974_s_at) / Fold change /veh PLEKHG5 (11737974_s_at) / RFU LRRC4B (11730491_at) / Fold change /veh LRRC4B (11730491_at) / RFU GIMAP4 (11747438_a_at) / Fold change /veh GIMAP4 (11747438_a_at) / RFU KRT8 (11758183_x_at) / Fold change /veh KRT8 (11758183_x_at) / RFU CNN1 (11734310_a_at) / Fold change /veh CNN1 (11734310_a_at) / RFU VPS37D (11726825_at) / Fold change /veh VPS37D (11726825_at) / RFU C10orf10 (11716522_x_at) / Fold change /veh C10orf10 (11716522_x_at) / RFU KIR2DL2 /// KIR2DL4 /// KIR2DL5A /// KIR2DL5B /// KIR2DS1 /// KIR2DS2 /// KIR2DS3 /// KIR2DS4 /// KIR3DL3 /// KIR3DL3 /// KIR3DS1 (11738374_at) / Fold change /veh KIR2DL2 /// KIR2DL4 /// KIR2DL5A /// KIR2DL5B /// KIR2DS1 /// KIR2DS2 /// KIR2DS3 /// KIR2DS4 /// KIR3DL3 /// KIR3DL3 /// KIR3DS1 (11738374_at) / RFU C1QL1 (11718748_at) / Fold change /veh C1QL1 (11718748_at) / RFU TMPRSS4 (11747572_a_at) / Fold change /veh TMPRSS4 (11747572_a_at) / RFU HAMP (11756126_x_at) / Fold change /veh HAMP (11756126_x_at) / RFU RNFT2 (11725882_a_at) / Fold change /veh RNFT2 (11725882_a_at) / RFU NR4A2 (11747474_a_at) / Fold change /veh NR4A2 (11747474_a_at) / RFU ABCC12 (11746883_a_at) / Fold change /veh ABCC12 (11746883_a_at) / RFU TMEM136 (11760407_x_at) / Fold change /veh TMEM136 (11760407_x_at) / RFU CLDN22 /// WWC2 (11732394_at) / Fold change /veh CLDN22 /// WWC2 (11732394_at) / RFU HLA-DPB1 (11760878_x_at) / Fold change /veh HLA-DPB1 (11760878_x_at) / RFU SPINT1 (11716480_a_at) / Fold change /veh SPINT1 (11716480_a_at) / RFU GAP43 (11754022_s_at) / Fold change /veh GAP43 (11754022_s_at) / RFU A4GNT (11735810_at) / Fold change /veh A4GNT (11735810_at) / RFU PRB3 (11715151_x_at) / Fold change /veh PRB3 (11715151_x_at) / RFU TUBB4B (11761932_at) / Fold change /veh TUBB4B (11761932_at) / RFU CAPN14 (11732068_a_at) / Fold change /veh CAPN14 (11732068_a_at) / RFU TMCC2 (11721928_a_at) / Fold change /veh TMCC2 (11721928_a_at) / RFU IRGQ (11745062_a_at) / Fold change /veh IRGQ (11745062_a_at) / RFU FAM174B (11720279_a_at) / Fold change /veh FAM174B (11720279_a_at) / RFU TMPRSS4 (11748680_a_at) / Fold change /veh TMPRSS4 (11748680_a_at) / RFU FAM212B (11763350_a_at) / Fold change /veh FAM212B (11763350_a_at) / RFU PLEKHG5 (11743358_a_at) / Fold change /veh PLEKHG5 (11743358_a_at) / RFU ZSCAN30 (11745921_a_at) / Fold change /veh ZSCAN30 (11745921_a_at) / RFU CMKLR1 (11741424_a_at) / Fold change /veh CMKLR1 (11741424_a_at) / RFU LOC101060620 /// MAPK8IP1 (11723275_at) / Fold change /veh LOC101060620 /// MAPK8IP1 (11723275_at) / RFU SPTSSB (11747773_x_at) / Fold change /veh SPTSSB (11747773_x_at) / RFU PRSS12 (11739890_at) / Fold change /veh PRSS12 (11739890_at) / RFU BIN1 (11741810_x_at) / Fold change /veh BIN1 (11741810_x_at) / RFU WNT11 (11732464_a_at) / Fold change /veh WNT11 (11732464_a_at) / RFU C10orf10 (11716521_a_at) / Fold change /veh C10orf10 (11716521_a_at) / RFU C5orf56 (11738089_at) / Fold change /veh C5orf56 (11738089_at) / RFU CYB561 (11721691_x_at) / Fold change /veh CYB561 (11721691_x_at) / RFU ANKRD19P (11752326_a_at) / Fold change /veh ANKRD19P (11752326_a_at) / RFU OR2T12 /// OR2T33 /// OR2T8 (11738714_s_at) / Fold change /veh OR2T12 /// OR2T33 /// OR2T8 (11738714_s_at) / RFU VCAN (11748164_a_at) / Fold change /veh VCAN (11748164_a_at) / RFU JSRP1 (11732532_at) / Fold change /veh JSRP1 (11732532_at) / RFU KRTAP10-11 (11738290_x_at) / Fold change /veh KRTAP10-11 (11738290_x_at) / RFU MYO3A (11730013_a_at) / Fold change /veh MYO3A (11730013_a_at) / RFU EBF3 (11725865_a_at) / Fold change /veh EBF3 (11725865_a_at) / RFU CAMK2N1 (11719241_x_at) / Fold change /veh CAMK2N1 (11719241_x_at) / RFU C5orf56 (11738088_a_at) / Fold change /veh C5orf56 (11738088_a_at) / RFU OLFML3 (11715873_a_at) / Fold change /veh OLFML3 (11715873_a_at) / RFU LOC100653217 /// NTM (11731650_a_at) / Fold change /veh LOC100653217 /// NTM (11731650_a_at) / RFU MAPK11 (11762145_a_at) / Fold change /veh MAPK11 (11762145_a_at) / RFU FIZ1 (11724087_x_at) / Fold change /veh FIZ1 (11724087_x_at) / RFU OASL (11726364_x_at) / Fold change /veh OASL (11726364_x_at) / RFU SOX15 (11748057_x_at) / Fold change /veh SOX15 (11748057_x_at) / RFU CD79A (11719716_a_at) / Fold change /veh CD79A (11719716_a_at) / RFU HIST1H1D (11736915_at) / Fold change /veh HIST1H1D (11736915_at) / RFU CASKIN2 (11723855_a_at) / Fold change /veh CASKIN2 (11723855_a_at) / RFU LOC730098 (11760151_x_at) / Fold change /veh LOC730098 (11760151_x_at) / RFU OR4N2 (11742367_at) / Fold change /veh OR4N2 (11742367_at) / RFU PRRT2 (11749266_a_at) / Fold change /veh PRRT2 (11749266_a_at) / RFU SNX32 (11753110_a_at) / Fold change /veh SNX32 (11753110_a_at) / RFU CDHR5 (11726645_a_at) / Fold change /veh CDHR5 (11726645_a_at) / RFU RCAN1 (11760418_a_at) / Fold change /veh RCAN1 (11760418_a_at) / RFU FAM167A (11723789_a_at) / Fold change /veh FAM167A (11723789_a_at) / RFU FAM26E (11764081_at) / Fold change /veh FAM26E (11764081_at) / RFU ISYNA1 (11749810_s_at) / Fold change /veh ISYNA1 (11749810_s_at) / RFU ACY1 (11761880_at) / Fold change /veh ACY1 (11761880_at) / RFU 11764098_at / Fold change /veh 11764098_at / RFU SAMD14 (11745864_x_at) / Fold change /veh SAMD14 (11745864_x_at) / RFU NPB (11741838_a_at) / Fold change /veh NPB (11741838_a_at) / RFU TMPRSS6 (11731388_a_at) / Fold change /veh TMPRSS6 (11731388_a_at) / RFU KRTAP10-2 (11738614_at) / Fold change /veh KRTAP10-2 (11738614_at) / RFU ARHGAP8 /// PRR5-ARHGAP8 (11727945_x_at) / Fold change /veh ARHGAP8 /// PRR5-ARHGAP8 (11727945_x_at) / RFU KRTAP5-7 /// NADSYN1 (11734609_at) / Fold change /veh KRTAP5-7 /// NADSYN1 (11734609_at) / RFU RASL12 (11751679_a_at) / Fold change /veh RASL12 (11751679_a_at) / RFU CDKN2B (11736163_a_at) / Fold change /veh CDKN2B (11736163_a_at) / RFU PRF1 (11729649_at) / Fold change /veh PRF1 (11729649_at) / RFU, ZNF638 /// ZNF638-IT1 / Fold change vs veh, ZNF638 /// ZNF638-IT1 / RFU, PANK3 / Fold change vs veh, PANK3 / RFU, SH3YL1 / Fold change vs veh, SH3YL1 / RFU, ZEB2 / Fold change vs veh, ZEB2 / RFU, NRIP1 / Fold change vs veh, NRIP1 / RFU, PTTG1IP / Fold change vs veh, PTTG1IP / RFU, CAPN2 / Fold change vs veh, CAPN2 / RFU, MED14 / Fold change vs veh, MED14 / RFU, SNORA58 / Fold change vs veh, SNORA58 / RFU, C1orf63 / Fold change vs veh, C1orf63 / RFU, LRRFIP1 / Fold change vs veh, LRRFIP1 / RFU, NDUFAF7 / Fold change vs veh, NDUFAF7 / RFU, SLC12A2 / Fold change vs veh, SLC12A2 / RFU, IBTK / Fold change vs veh, IBTK / RFU, ESF1 / Fold change vs veh, ESF1 / Fold change vs veh, TMEM50B / RFU, TAOK1 / Fold change vs veh, TAOK1 / RFU, ACBD3 / Fold change vs veh, ACBD3 / RFU, TMA16 / Fold change vs veh, TMA16 / RFU, RWDD3 / Fold change vs veh, RWDD3 / RFU, BCAT1 / Fold change vs veh, BCAT1 / RFU, EDEM3 / Fold change vs veh, EDEM3 / RFU, TMEM33 / Fold change vs veh, TMEM33 / RFU, WDR75 / Fold change vs veh, WDR75 / RFU, AHCTF1 / Fold change vs veh, AHCTF1 / RFU, TFRC / Fold change vs veh, TFRC / RFU, ZDHHC17 / Fold change vs veh, ZDHHC17 / RFU, NOM1 / Fold change vs veh, NOM1 / RFU, ARL8B / Fold change vs veh, ARL8B / RFU, ZBTB11 / Fold change vs veh, ZBTB11 / RFU, TAMM41 / Fold change vs veh, TAMM41 / RFU, KIAA1704 /// LOC100996395 / Fold change vs veh, KIAA1704 /// LOC100996395 / RFU, ING1 / Fold change vs veh, ING1 / RFU, TRMT61B / Fold change vs veh, TRMT61B / RFU, FUBP3 / Fold change vs veh, FUBP3 / RFU, TP53 / Fold change vs veh, TP53 / RFU, TNKS2 / Fold change vs veh, TNKS2 / RFU, ZFP14 / Fold change vs veh, ZFP14 / RFU, ACTR2 / Fold change vs veh, ACTR2 / RFU, PPP3R1 / Fold change vs veh, PPP3R1 / RFU, PIK3R1 / Fold change vs veh, PIK3R1 / RFU, HNRNPA1 / Fold change vs veh, HNRNPA1 / RFU, RNF170 / Fold change vs veh, RNF170 / RFU, ZNF28 / Fold change vs veh, ZNF28 / RFU, RNGTT / Fold change vs veh, RNGTT / RFU, OGT / Fold change vs veh, OGT / RFU, BRD1 / Fold change vs veh, BRD1 / RFU, MARS / Fold change vs veh, MARS / RFU, ZNF655 / Fold change vs veh, ZNF655 / RFU, FAHD1 / Fold change vs veh, FAHD1 / RFU, BDP1 / Fold change vs veh, BDP1 / RFU, LRRCC1 / Fold change vs veh, LRRCC1 / RFU, ARID1A / Fold change vs veh, ARID1A / RFU, ZNF146 / Fold change vs veh, ZNF146 / RFU, ZNF330 / Fold change vs veh, ZNF330 / RFU, GPN3 / Fold change vs veh, GPN3 / RFU, C9orf123 / Fold change vs veh, C9orf123 / RFU, N4BP2L2 / Fold change vs veh, N4BP2L2 / RFU, ARFIP1 / Fold change vs veh, ARFIP1 / RFU, FAM179B / Fold change vs veh, FAM179B / RFU, BCL10 / Fold change vs veh, BCL10 / RFU, UHRF1BP1L / Fold change vs veh, UHRF1BP1L / RFU, BET1 / Fold change vs veh, BET1 / RFU, CNOT2 / Fold change vs veh, CNOT2 / RFU, ZNF268 / Fold change vs veh, ZNF268 / Fold change vs veh, ZNF507 / RFU, DGCR2 / Fold change vs veh, DGCR2 / RFU, WDSUB1 / Fold change vs veh, WDSUB1 / Fold change vs veh, HSP90B1 /// MIR3652 / RFU, ADSS / Fold change vs veh, ADSS / RFU, GK / Fold change vs veh, GK / RFU, ZNF148 / Fold change vs veh, ZNF148 / RFU, TAF9 / Fold change vs veh, TAF9 / RFU, SLC1A5 / Fold change vs veh, SLC1A5 / RFU, SLMO2 / Fold change vs veh, SLMO2 / RFU, ABCC4 / Fold change vs veh, ABCC4 / RFU, LOC101060439 /// RAP1B / Fold change vs veh, LOC101060439 /// RAP1B / RFU, RFX7 / Fold change vs veh, RFX7 / RFU, GTPBP10 / Fold change vs veh, GTPBP10 / RFU, CNEP1R1 / Fold change vs veh, CNEP1R1 / RFU, BIVM-ERCC5 /// ERCC5 / Fold change vs veh, BIVM-ERCC5 /// ERCC5 / RFU, ILF3 / Fold change vs veh, ILF3 / RFU 11762660_at / Fold change /veh 11762660_at / RFU VCAN (11757783_s_at) / Fold change /veh VCAN (11757783_s_at) / RFU DDX43 (11728927_at) / Fold change /veh DDX43 (11728927_at) / RFU KRT8 (11758188_x_at) / Fold change /veh KRT8 (11758188_x_at) / RFU NKD1 (11759106_at) / Fold change /veh NKD1 (11759106_at) / RFU SRD5A1 (11742802_a_at) / Fold change /veh SRD5A1 (11742802_a_at) / RFU TPSAB1 /// TPSB2 (11721975_s_at) / Fold change /veh TPSAB1 /// TPSB2 (11721975_s_at) / RFU GSTM3 (11746129_a_at) / Fold change /veh GSTM3 (11746129_a_at) / RFU IL23R (11737362_x_at) / Fold change /veh IL23R (11737362_x_at) / RFU TMEM51 (11727254_a_at) / Fold change /veh TMEM51 (11727254_a_at) / RFU PIWIL2 (11732686_x_at) / Fold change /veh PIWIL2 (11732686_x_at) / RFU ORM1 (11744905_x_at) / Fold change /veh ORM1 (11744905_x_at) / RFU CCDC152 (11743942_at) / Fold change /veh CCDC152 (11743942_at) / RFU ECM1 (11717891_a_at) / Fold change /veh ECM1 (11717891_a_at) / RFU IL23R (11748794_a_at) / Fold change /veh IL23R (11748794_a_at) / RFU TNFAIP8L3 (11732012_x_at) / Fold change /veh TNFAIP8L3 (11732012_x_at) / RFU MBOAT4 (11741988_at) / Fold change /veh MBOAT4 (11741988_at) / RFU 11764193_at / Fold change /veh 11764193_at / RFU TMEM53 (11763286_at) / Fold change /veh TMEM53 (11763286_at) / RFU MAGEB2 (11727129_at) / Fold change /veh MAGEB2 (11727129_at) / RFU TMEM200A (11744735_a_at) / Fold change /veh TMEM200A (11744735_a_at) / RFU CCDC152 (11751479_a_at) / Fold change /veh CCDC152 (11751479_a_at) / RFU FAM211A (11726209_a_at) / Fold change /veh FAM211A (11726209_a_at) / RFU RGS16 (11746705_a_at) / Fold change /veh RGS16 (11746705_a_at) / RFU VCAN (11755009_s_at) / Fold change /veh VCAN (11755009_s_at) / RFU RHOB (11743442_s_at) / Fold change /veh RHOB (11743442_s_at) / RFU RGS16 (11720943_a_at) / Fold change /veh RGS16 (11720943_a_at) / RFU RGS16 (11720944_at) / Fold change /veh RGS16 (11720944_at) / RFU, VPS4B / Fold change vs veh, VPS4B / RFU, CREB1 / Fold change vs veh, CREB1 / RFU, DNAJC13 / Fold change vs veh, DNAJC13 / RFU, GNAQ / Fold change vs veh, GNAQ / RFU, CDK5R1 / Fold change vs veh, CDK5R1 / RFU, ZRANB3 / Fold change vs veh, ZRANB3 / RFU, CUL4A / Fold change vs veh, CUL4A / RFU, CCNY / Fold change vs veh, CCNY / RFU, UFL1 / Fold change vs veh, UFL1 / RFU, COG3 / Fold change vs veh, COG3 / RFU, DIAPH2 / Fold change vs veh, DIAPH2 / RFU, SKA2 / Fold change vs veh, SKA2 / RFU, AFF3 / Fold change vs veh, AFF3 / RFU, LMF1 / Fold change vs veh, LMF1 / RFU, IPO11 / Fold change vs veh, IPO11 / RFU, DFFB / Fold change vs veh, DFFB / RFU, FOXP1 / Fold change vs veh, FOXP1 / RFU, CARD8 / Fold change vs veh, CARD8 / RFU, STRN3 / Fold change vs veh, STRN3 / RFU, ADK / Fold change vs veh, ADK / RFU, RASSF2 / Fold change vs veh, RASSF2 / RFU, WIPF1 / Fold change vs veh, WIPF1 / RFU, LARP1B / Fold change vs veh, LARP1B / RFU, RASA1 / Fold change vs veh, RASA1 / RFU, RB1 / Fold change vs veh, RB1 / RFU, PPFIA1 / Fold change vs veh, PPFIA1 / RFU, MAT2A / Fold change vs veh, MAT2A / RFU, CCT5 / Fold change vs veh, CCT5 / RFU, WDR92 / Fold change vs veh, WDR92 / RFU, CUX1 / Fold change vs veh, CUX1 / RFU, TTC7A / Fold change vs veh, TTC7A / RFU, TMEM135 / Fold change vs veh, TMEM135 / RFU, DEPTOR / Fold change vs veh, DEPTOR / RFU, CPM / Fold change vs veh, CPM / RFU, DNAJB6 / Fold change vs veh, DNAJB6 / RFU, CACNA2D3 / Fold change vs veh, CACNA2D3 / RFU, DTX4 / Fold change vs veh, DTX4 / RFU, TFCP2 / Fold change vs veh, TFCP2 / RFU, GMCL1 /// GMCL1P1 / Fold change vs veh, GMCL1 /// GMCL1P1 / RFU, AEBP2 / Fold change vs veh, AEBP2 / RFU, SNHG1 /// SNORD22 /// SNORD25 /// SNORD26 /// SNORD27 /// SNORD28 /// SNORD29 /// SNORD31 / Fold change vs veh, SNHG1 /// SNORD22 /// SNORD25 /// SNORD26 /// SNORD27 /// SNORD28 /// SNORD29 /// SNORD31 / Fold change (Aza/veh), C12orf56 (ProbeSet 11735607_a_at) / Fold change (ACY-1035/veh), C12orf56 (ProbeSet 11735607_a_at) / Fold change (Aza/veh), FGFR1OP (ProbeSet 11751329_s_at) / Fold change (ACY-1035/veh), FGFR1OP (ProbeSet 11751329_s_at) / Fold change (Aza/veh), VPS36 (ProbeSet 11739960_a_at) / Fold change (ACY-1035/veh), VPS36 (ProbeSet 11739960_a_at) / RFU SYPL1 (11715823_x_at) / Fold change /veh SYPL1 (11715823_x_at) / RFU IGFBP7 (11715501_s_at) / Fold change /veh IGFBP7 (11715501_s_at) / RFU REEP3 (11722064_at) / Fold change /veh REEP3 (11722064_at) / RFU IGLL1 (11728026_x_at) / Fold change /veh IGLL1 (11728026_x_at): dose or concentration left out as unconfirmed. Conditions: ProbeSet 11727545_at; LIST B.

For the compound `Nc1ncn([C@@H]2O[C@H](CO)[C@@H](O)[C@H]2O)c(=O)n1` [azacitidine], the “RFU, PANK3” value amounted to 82.98 RFU.
